According to patent US8198456B2, “Dihydropyridine derivatives as useful as protein kinase inhibitors” (Bayer Intellectual Property GmbH, priority 2006, dated 2012):

Target: T1, recombinant human c-MET kinase enzyme domain (Homo sapiens, UniProt P08581)
T1 construct: Recombinant c-Met kinase domain (amino acids 960-1390); His (N); made in house; host or cells: baculovirus expression system (insect cells; SF21 is named only for the alternative format)
Test: c-MET receptor tyrosine kinase Homogeneous Time Resolved Fluorescence assay (HTRF)
Format: biochemical
Conditions: Biological Example 1 and/or Biological Example 2
From the text: Recombinant c-Met kinase domain (amino acids 960-1390) was produced in a baculovirus expression vector as an N-terminal His-tagged fusion protein and purified on a NiNTA column. The resulting purified enzyme was then used in the following c-Met Homogeneous Time Resolved Fluorescence assay (HTRF) to find compounds of the invention and to perform initial activity determinations. Specifically, this assay measures the ability of compounds of the invention to inhibit the phosphorylation of a randomly synthesized, biotinylated heterocopolymeric polypeptide composed of glutamic acid and tyrosine, with an average length of 100 aa. The assay analyzes the amount of phosphorylated polypeptide produced.
The enzymatic phosphorylation of the biotinylated heterocopolymeric polypeptide was performed in a black 384-well plate at ambient temperature in a reaction mixture containing 50 mM HEPES (pH 7.4), 5 mM MgCl2, 5 mM MnCl2, 0.01% Tween-20, and 2 mM DTT, […] recombinant human c-MET kinase enzyme domain, 37 nM biotinylated heterocopolymeric polypeptide composed of glutamic acid and tyrosine, 20 μM ATP, 1% DMSO in the absence or presence of a compound of the invention. The reaction was stopped after a 20-minute incubation by the addition of 80 mM EDTA.
The formation of phosphorylated heterocopolymeric, biotinylated polypeptide was quantified with the HTRF assay technology using an anti-phosphotyrosine antibody, PT66, conjugated to europium cryptate, mixed with a streptavidin-XL665 conjugate. Reduced or inhibited phosphorylation of the heterocopolymeric, biotinylated polypeptide prevents the anti-phosphotyrosine antibody from binding to the peptide, resulting in a loss of energy transfer to the streptavidin-XL665 conjugate.
Following the 384-well enzymatic phosphorylation reaction outlined above, the detection of phosphorylated heterocopolymeric, biotinylated polypeptide was performed by dilution of the stopped reaction mixture 2-fold with 50 mM HEPES (pH 7.0), 500 mM KF, 0.1% BSA, streptavidin-XL665 (20 nM), and anti-phosphotyrosine antibody PT66-crypate conjugate (6.4 ng/well) and incubation for four hours at ambient temperature. Plates were read in an Envision plate reader (PerkinElmer Life and Analytical Sciences, Inc., MA) simultaneously at 620 nm and 665 nm to obtain signal ratios of 665 nm/620 nm. Results of energy transfer were expressed as signal ratios of 665 nm/620 nm. Negative controls were samples without recombinant c-MET or c-MET treated with 100 mM EDTA.
For determination of IC50 values of particular compounds of the invention, eight serially diluted compound concentrations (at 1:3.16 dilution) were used in the assay. Controls without a compound of the invention or with a reference compound were run in parallel in the same assay plate.

T1 sequence (P08581 960-1390): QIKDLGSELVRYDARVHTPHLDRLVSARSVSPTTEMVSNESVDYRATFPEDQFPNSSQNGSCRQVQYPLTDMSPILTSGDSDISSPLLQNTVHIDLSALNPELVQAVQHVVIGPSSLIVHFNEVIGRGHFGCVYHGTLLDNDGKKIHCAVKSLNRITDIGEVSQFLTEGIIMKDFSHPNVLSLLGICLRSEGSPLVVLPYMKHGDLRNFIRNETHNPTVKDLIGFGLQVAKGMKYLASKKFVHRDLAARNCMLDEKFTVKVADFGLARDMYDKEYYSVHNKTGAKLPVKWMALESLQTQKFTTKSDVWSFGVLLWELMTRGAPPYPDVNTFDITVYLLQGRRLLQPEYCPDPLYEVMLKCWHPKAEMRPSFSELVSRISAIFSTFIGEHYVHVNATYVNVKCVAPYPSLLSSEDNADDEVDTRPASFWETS

IC50 [µM] | Structure (SMILES)
< 0.1 | COC(=O)c1ccc(CNc2n[nH]c3ccc(C4C(C#N)=C(C)NC(C)=C4C#N)cc23)cc1 [compound 135, 4-[[[5-(3,5-dicyano-1,4-dihydro-2,6-dimethyl-4-pyridinyl)-1H-indazol-3-yl]-amino]methyl]-benzoic acid methyl ester]
< 0.1 | CC1=C(C#N)C(c2ccc3[nH]nc(NCc4ccc(C(=O)O)cc4)c3c2)C(C#N)=C(C)N1 [compound 136, 4-[[[5-(3,5-dicyano-1,4-dihydro-2,6-dimethyl-4-pyridinyl)-1H-indazol-3-yl]-amino]methyl]-benzoic acid]
< 0.1 | CC1=C(C#N)C(c2ccc3[nH]nc(-c4ccc(N5CCN(C)CC5)nc4)c3c2)C(C#N)=C(C)N1 [compound 137, 1,4-dihydro-2,6-dimethyl-4-[3-[6-(4-methyl-1-piperazinyl)-3-pyridinyl]-1H-indazol-5-yl]-3,5-pyridinedicarbonitrile]
< 0.1 | CC1=C(C#N)C(c2ccc3[nH]nc(-c4ccc(CN(C)C)cc4)c3c2)C(C#N)=C(C)N1 [compound 138, 4-[3-[4-[(dimethylamino)methyl]phenyl]-1H-indazol-5-yl]-1,4-dihydro-2,6-dimethyl-3,5-pyridinedicarbonitrile]
< 0.1 | CC1=C(C#N)C(c2ccc3[nH]nc(C#CCN(C)C)c3c2)C(C#N)=C(C)N1 [compound 139, 4-[3-[3-(dimethylamino)-1-propynyl]-1H-indazol-5-yl]-1,4-dihydro-2,6-dimethyl-3,5-pyridinedicarbonitrile]
< 0.1 | CC1=C(C#N)C(c2ccc3[nH]nc(-c4ccc(N5CCN(C)CC5)cc4)c3c2)C(C#N)=C(C)N1 [compound 140, 1,4-dihydro-2,6-dimethyl-4-[3-[4-(4-methyl-1-piperazinyl)phenyl]-1H-indazol-5-yl]-3,5-pyridinedicarbonitrile]
0.5 to 2.5 | CCN(CC)CC(=O)Nc1n[nH]c2ccc(C3C(C#N)=C(C)NC(C)=C3C#N)cc12 [compound 141, N-[5-(3,5-dicyano-1,4-dihydro-2,6-dimethyl-4-pyridinyl)-1H-indazol-3-yl]-2-(diethylamino)-acetamide]
< 0.1 | CC1=C(C#N)C(c2ccc3[nH]nc(-c4nc5ccccc5[nH]4)c3c2)C(C#N)=C(C)N1 [compound 142, 4-[3-(1H-benzimidazol-2-yl)-1H-indazol-5-yl]-1,4-dihydro-2,6-dimethyl-3,5-pyridinedicarbonitrile]
< 0.1 | CON(C)C(=O)c1n[nH]c2ccc(C3C(C#N)=C(C)NC(C)=C3C#N)cc12 [compound 143, 5-(3,5-dicyano-1,4-dihydro-2,6-dimethyl-4-pyridinyl)-N-methoxy-N-methyl-1H-indazole-3-carboxamide]
< 0.1 | CC1=C(C#N)C(c2ccc3[nH]nc(CO)c3c2)C(C#N)=C(C)N1 [compound 144, 1,4-dihydro-4-[3-(hydroxymethyl)-1H-indazol-5-yl]-2,6-dimethyl-3,5-pyridinedicarbonitrile]
< 0.1 | CC1=C(C#N)C(c2ccc3[nH]nc(C=O)c3c2)C(C#N)=C(C)N1 [compound 145, 4-(3-formyl-1H-indazol-5-yl)-1,4-dihydro-2,6-dimethyl-3,5-pyridinedicarbonitrile]
< 0.1 | CNC(=O)Nc1n[nH]c2ccc(C3C(C#N)=C(C)NC(C)=C3C#N)cc12 [compound 147, N-[5-(3,5-dicyano-1,4-dihydro-2,6-dimethyl-4-pyridinyl)-1H-indazol-3-yl]-N′-methyl-urea]
< 0.1 | CC1=C(C#N)C(c2ccc3[nH]nc(Cl)c3c2)C(C#N)=C(C)N1 [compound 148, 4-(3-chloro-1H-indazol-5-yl)-1,4-dihydro-2,6-dimethyl-3,5-pyridinedicarbonitrile]
< 0.1 | CC1=C(C#N)C(c2ccc3[nH]nc(/C=N/O)c3c2)C(C#N)=C(C)N1 [compound 149, 1,4-dihydro-4-[3-[(E)-(hydroxyimino)methyl]-1H-indazol-5-yl]-2,6-dimethyl-3,5-pyridinedicarbonitrile]
< 0.1 | CC1=C(C#N)C(c2ccc3[nH]nc(NCc4cnc[nH]4)c3c2)C(C#N)=C(C)N1 [compound 150, 1,4-dihydro-4-[3-[(1H-imidazol-4-ylmethyl)amino]-1H-indazol-5-yl]-2,6-dimethyl-3,5-pyridinedicarbonitrile]
< 0.1 | CC1=C(C#N)C(c2ccc3[nH]nc(Br)c3c2)C(C#N)=C(C)N1 [compound 151, 4-(3-bromo-1H-indazol-5-yl)-1,4-dihydro-2,6-dimethyl-3,5-pyridinedicarbonitrile]
< 0.1 | CC1=C(C#N)C(c2ccc3[nH]nc(-c4ccc(N5CCN(CCO)CC5)cc4)c3c2)C(C#N)=C(C)N1 [compound 152, 1,4-dihydro-4-[3-[4-[4-(2-hydroxyethyl)-1-piperazinyl]phenyl]-1H-indazol-5-yl]-2,6-dimethyl-3,5-pyridinedicarbonitrile]
< 0.1 | CC1=C(C#N)C(c2ccc3[nH]nc(-c4ccc(N5CCN(C(=O)OC(C)(C)C)CC5)cc4)c3c2)C(C#N)=C(C)N1 [compound 155, 4-[4-[5-(3,5-dicyano-1,4-dihydro-2,6-dimethyl-4-pyridinyl)-1H-indazol-3-yl]-phenyl]-1-piperazinecarboxylic acid 1,1-dimethylethyl ester]
< 0.1 | CC1=C(C#N)C(c2ccc3[nH]nc(-c4cnn(C5CCNCC5)c4)c3c2)C(C#N)=C(C)N1 [compound 157, 1,4-dihydro-2,6-dimethyl-4-[3-[1-(4-piperidinyl)-1H-pyrazol-4-yl]-1H-indazol-5-yl]-3,5-pyridinedicarbonitrile]
< 0.1 | CC(=O)c1n[nH]c2ccc(C3C(C#N)=C(C)NC(C)=C3C#N)cc12 [compound 158, 4-(3-acetyl-1H-indazol-5-yl)-1,4-dihydro-2,6-dimethyl-3,5-pyridinedicarbonitrile]
< 0.1 | CO/N=C/c1n[nH]c2ccc(C3C(C#N)=C(C)NC(C)=C3C#N)cc12 [compound 159, 1,4-dihydro-4-[3-[(E)-(methoxyimino)methyl]-1H-indazol-5-yl]-2,6-dimethyl-3,5-pyridinedicarbonitrile]
< 0.1 | CC1=C(C#N)C(c2ccc3[nH]nc(/C(C)=N/O)c3c2)C(C#N)=C(C)N1 [compound 160, 1,4-dihydro-4-[3-[(1E)-1-(hydroxyimino)ethyl]-1H-indazol-5-yl]-2,6-dimethyl-3,5-pyridinedicarbonitrile]
< 0.1 | CC1=C(C#N)C(c2ccc3[nH]nc(NCc4ccc(N5CCOCC5)cc4)c3c2)C(C#N)=C(C)N1 [compound 163, 1,4-dihydro-2,6-dimethyl-4-[3-[[[4-(4-morpholinyl)phenyl]methyl]amino]-1H-indazol-5-yl]-3,5-pyridinedicarbonitrile]
< 0.1 | CC1=C(C#N)C(c2ccc3[nH]nc(N4CCNCC4)c3c2)C(C#N)=C(C)N1 [compound 164, 1,4-dihydro-2,6-dimethyl-4-[3-(1-piperazinyl)-1H-indazol-5-yl]-3,5-pyridinedicarbonitrile]
< 0.1 | CC1=C(C#N)C(c2ccc3[nH]nc(CN4CCN(CCO)CC4)c3c2)C(C#N)=C(C)N1 [compound 166, 1,4-dihydro-4-[3-[[4-(2-hydroxyethyl)-1-piperazinyl]methyl]-1H-indazol-5-yl]-2,6-dimethyl-3,5-pyridinedicarbonitrile]
< 0.1 | CC1=C(C#N)C(c2ccc3[nH]nc(NCc4ccc(C(=O)N5CCC(O)C5)cc4)c3c2)C(C#N)=C(C)N1 (centres unmarked) [compound 168, 1,4-dihydro-4-[3-[[[4-[(3-hydroxy-1-pyrrolidinyl)carbonyl]phenyl]methyl]amino]-1H-indazol-5-yl]-2,6-dimethyl-3,5-pyridinedicarbonitrile]
0.5 to 2.5 | CC1=C(C#N)C(c2ccc3[nH]nc(C(F)(F)F)c3c2)C(C#N)=C(C)N1 [compound 169, 1,4-dihydro-2,6-dimethyl-4-[3-(trifluoromethyl)-1H-indazol-5-yl]-3,5-pyridinedicarbonitrile]
< 0.1 | CC1=C(C#N)C(c2ccc3[nH]nc(-c4ncc[nH]4)c3c2)C(C#N)=C(C)N1 [compound 170, 1,4-dihydro-4-[3-(1H-imidazol-2-yl)-1H-indazol-5-yl]-2,6-dimethyl-3,5-pyridinedicarbonitrile]
< 0.1 | CC1=C(C#N)C(c2ccc3[nH]nc(NCc4ccc(N(C)CCO)cc4)c3c2)C(C#N)=C(C)N1 [compound 172, 1,4-dihydro-4-[3-[[[4-[(2-hydroxyethyl)methylamino]phenyl]methyl]amino]-H-indazol-5-yl]-2,6-dimethyl-3,5-pyridinedicarbonitrile]
